This is an account of results in paper PMC10917278, “Structural insights into the modulation Of SOD1 aggregation By a fungal metabolite Phialomustin-B: Therapeutic potential in ALS” (PLOS ONE, 2024).

For one experiment, the target named is T1, SOD1^A4V (Homo sapiens, UniProt P00441, A5V).
T1 construct: The full-length constructs of SOD1-wild type (aa: 1–145) and its corresponding SOD1 disease mutant, SOD1^A4V; His-tag (cleaved yes); made in house; host or cells: E. coli BL21 DE3
In words: Thioflavin T (ThT) fluorescence aggregation assay, SOD1^A4V. Type of experiment: biochemical. The settings on record: for kapp / t50 / tlag: 37 °C, reduced conditions. The method, then: (§1) Following the co-crystal structure elucidation of SOD1 in complex with PB, we wanted to identify the effect of PB on the aggregation of SOD1^WT and its disease mutant, SOD1^A4V. A comprehensive analysis of the anti-aggregation propensity of PB was performed using a ThT-based fluorescence assay and analytical size-exclusion based chromatography (SEC) assay. We used Thioflavin-T, a β-sheet formation reporter, to assess the aggregation of SOD1. Time lag (tlag) is a kinetic parameter used to evaluate the lag phase of fibrillation. Fibril elongation was used to evaluate the rate of β sheet formation. […] Similar effects on lag time are also observed for SOD1^A4V. […] Moreover, ThT-based aggregation assays were also performed for the PB site-specific mutants, SOD1^A123F, SOD1^K9F, SOD1^L42R, and SOD1^G10P (S4a, S4c, S4e and S4g Fig). As expected based on the abovementioned MST results, the aggregation analysis is inconclusive as these mutants, which correspond to the ligand binding residues, cause a loss of protein-ligand interactions.
(§2) Fig 6 Aggregation studies of metallated and reduced SOD1^WT and SOD1^A4V on treatment with PB. ThT fluorescence was monitored during the co-incubation of metallated SOD1^WT (50 μM) (a) or SOD1^A4V (50 μM) (b) with PB at 1:30 molar ratio at 37 °C with continuous shaking, under reduced conditions. The values were normalized to the maximal ThT intensity elicited by SOD1^WT or SOD1^A4V and fitted to a Boltzmann sigmoidal equation. The control and PB-treated species were compared to analyse the effects of PB on the aggregation of SOD1^WT and SOD1^A4V. Error bars indicate the standard deviation. Analytical SEC of metallated SOD1^WT (50 μM) (c) and SOD1^A4V (50 μM) (d) with PB were analyzed under reducing conditions before and after 24 hrs and 48 hrs incubation at 37 °C. The first peak eluting at the volume was denoted as oligomerized SOD1^WT/SOD1^A4V (L). The second, third, and fourth peaks were calculated as trimer (T), dimer (D), and monomer (M) species of SOD1^WT/SOD1^A4V running at 14.5 ml, 15.7 ml, and 16.5 ml, respectively. […] The monomer (M), dimer (D), trimer (T), and large aggregate (L) species are shown as green, purple, red, and black dotted lines, respectively. All the experiments were performed for n = 3 biological replicates.
(§3) Fig 7 Aggregation studies of de-metallated and reduced SOD1^WT and SOD1^A4V on treatment with PB. ThT fluorescence was monitored during the co-incubation of de-metallated SOD1^WT (50 μM) (a) or SOD1^A4V (50 μM) (b) with PB at 1:30 molar ratio at 37 °C with continuous shaking, under reduced conditions. The values were normalized to the maximal ThT intensity elicited by SOD1^WT or SOD1^A4V and fitted to a Boltzmann sigmoidal equation. The control and PB-treated species were compared to analyse PB’s effects on the aggregation of SOD1^WT and SOD1^A4V. Analytical SEC of de-metallated SOD1^WT (50 μM) (a) and SOD1^A4V (50 μM) (b) with PB were analysed under reducing conditions before and after 24 hrs and 48 hrs incubation at 37 °C. The first peak eluting at the volume was denoted as oligomerized SOD1^WT (L) runs at 9.2 ml. The second, third, and fourth peaks were calculated as trimer (T), dimer (D), and monomer (M) species of SOD1^WT/SOD1^A4V running at 14.5 ml, 15.7 ml, and 16.5 ml, respectively. […] In the case of SOD1^A4V, PB eliminates the formation of large aggregates compared to the control (48hrs-EC, EC represents control with EDTA). The monomer (M), dimer (D), trimer (T), and large aggregate (L) species are shown as green, purple, red, and black dotted lines, respectively. All the experiments were performed for n = 3 biological replicates.
Aggregation assays were performed on SOD1^WT, the disease mutant A4V, and ligand-binding site-specific mutants to check the anti-aggregation activity of PB on the former. […] The ThT assay for the SOD1 aggregation was carried out per the recently published protocol. […]

The next experiment has as its target T2, SOD1^WT (Homo sapiens, UniProt P00441).
T2 construct: The full-length constructs of SOD1-wild type (aa: 1–145); His-tag (cleaved yes); made in house; host or cells: E. coli BL21 DE3
Nature of the experiment: Thioflavin T (ThT) fluorescence aggregation assay, SOD1^WT. Type of experiment: biochemical. The conditions noted are these: 37 °C, reduced conditions. The method, then: as §1, §2
as §3, with “The monomer (M), dimer (D), trimer (T), and large aggregate (L) species are shown as green, purple, red, and black dotted lines, respectively. All the experiments were performed for n = 3 biological replicates.” left out

[1] abbreviates: De-metallated (5 mM EDTA) SOD1^A4V 50 μM with PB at 1:30 molar ratio.
Where [2] appears, read: Metallated SOD1^A4V 50 μM with PB at 1:30 molar ratio.
Where [3] appears, read: De-metallated (5 mM EDTA) SOD1^WT 50 μM with PB at 1:30 molar ratio.
Where [4] appears, read: Metallated SOD1^WT 50 μM with PB at 1:30 molar ratio.

T1 sequence (P00441 whole entry A5V): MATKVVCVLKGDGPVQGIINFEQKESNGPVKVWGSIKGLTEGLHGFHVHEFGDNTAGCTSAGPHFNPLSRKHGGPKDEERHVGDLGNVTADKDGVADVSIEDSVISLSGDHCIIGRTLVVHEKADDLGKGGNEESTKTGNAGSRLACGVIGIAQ
T2 sequence (P00441 whole entry): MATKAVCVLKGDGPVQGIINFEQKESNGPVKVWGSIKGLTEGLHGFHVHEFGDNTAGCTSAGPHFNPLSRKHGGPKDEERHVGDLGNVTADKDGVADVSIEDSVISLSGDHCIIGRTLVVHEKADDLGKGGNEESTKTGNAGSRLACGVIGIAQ

As to `CCCC[C@H](C)/C=C(C)/C=C/C(=O)O` [PB, (S, 2E, 4E)-4,6-dimethyldeca-2,4-dienoic acid], the kapp came out at 0.05 h⁻¹ at SOD1^A4V (setting [1]), 0.07 h⁻¹ on SOD1^A4V (setting [2]), 0.374 h⁻¹ at SOD1^WT (setting [3]) and 0.233 h⁻¹ on SOD1^WT (setting [4]). The t50 on SOD1^A4V (setting [1]) worked out at 13.57 h; at SOD1^A4V (setting [2]), 10.45 h; at SOD1^WT (setting [3]), 1.851 h; at SOD1^WT (setting [4]), 2.976 h. Further, the tlag on SOD1^A4V (setting [1]) stood at 13.55 h; at SOD1^A4V (setting [2]), 10.44 h; on SOD1^WT (setting [3]) it was 1.84 h. Also, the “ThT signal of SOD1^A4V aggregation” value at SOD1^A4V (Metallated SOD1^A4V 50 μM, PB 1:30, versus control) is given as “drastic reduction in the ThT signal”.
